{
  "source": "paper PMC3345971",
  "about": "(Bioorganic & medicinal chemistry, 2012)",
  "key": {"DAT": {"system": "DAT", "conditions": "cited from earlier work; for IC50: read-out: DAT IC50, oxatropenes substituted at the C3 position"}, "SERT": {"system": "SERT", "conditions": "cited from earlier work"}, "[1]": {"target": "human dopamine transporter (hDAT) (Macaca fascicularis, UniProt Q9GJT6)", "sequence (Q9GJT6 whole entry)": "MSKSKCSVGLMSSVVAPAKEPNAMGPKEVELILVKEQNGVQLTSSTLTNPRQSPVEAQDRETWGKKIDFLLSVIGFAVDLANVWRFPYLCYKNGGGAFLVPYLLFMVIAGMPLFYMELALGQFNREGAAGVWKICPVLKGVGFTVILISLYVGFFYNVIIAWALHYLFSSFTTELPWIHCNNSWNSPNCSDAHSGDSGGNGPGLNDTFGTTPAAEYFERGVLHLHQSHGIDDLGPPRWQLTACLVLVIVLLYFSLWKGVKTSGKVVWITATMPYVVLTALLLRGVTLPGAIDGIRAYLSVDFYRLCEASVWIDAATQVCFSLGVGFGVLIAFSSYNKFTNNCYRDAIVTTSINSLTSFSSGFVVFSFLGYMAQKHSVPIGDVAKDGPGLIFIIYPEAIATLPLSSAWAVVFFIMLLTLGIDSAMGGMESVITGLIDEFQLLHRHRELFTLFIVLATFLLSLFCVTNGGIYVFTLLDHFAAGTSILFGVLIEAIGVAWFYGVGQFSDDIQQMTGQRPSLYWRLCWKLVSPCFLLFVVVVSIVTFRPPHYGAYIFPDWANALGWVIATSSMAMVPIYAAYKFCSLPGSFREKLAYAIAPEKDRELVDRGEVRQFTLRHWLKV", "experiment": "Inhibition of [3H]WIN35,428 binding to the dopamine transporter", "conditions": "DAT over SERT"}},
  "data": [
    {"molecule": "2β-Carbomethoxy-3 β-[2-furylphenyl]-8-azabicyclo[3.2.1]tropane", "values": [
      {"measurement": "DAT binding", "setting": "DAT; reported by Tamagnan et al", "result": 3.76, "unit": "nM"},
      {"measurement": "SERT binding", "setting": "SERT; reported by Tamagnan et al", "result": 0.15, "unit": "nM"}
    ]},
    {"molecule": "2β-carbomethoxy-3β-(2-naphthyl)-8-aza-bicyclo[3.2.1]octanes", "values": [
      {"measurement": "inhibition of DAT", "setting": "DAT", "result": 0.49, "unit": "nM"},
      {"measurement": "inhibition of SERT", "setting": "SERT", "result": 2.19, "unit": "nM"}
    ]},
    {"molecule": "COC(=O)C1=C(c2cccc3ccccc23)CC2CCC1O2", "note": "(centres unmarked) [oxatropene with 1-naphthyl]", "values": [
      {"measurement": "IC50", "setting": "DAT", "result": 1.72, "unit": "µM"}
    ]},
    {"molecule": "COC(=O)C1=C(c2ccc3cc4ccccc4cc3c2)CC2CCC1O2", "note": "(centres unmarked) [oxatropene with 2-anthracenyl]", "values": [
      {"measurement": "IC50", "setting": "DAT", "result": "> 40", "unit": "µM"}
    ]},
    {"molecule": "COC(=O)C1=C(c2ccc3ccccc3c2)CC2CCC1O2", "note": "(centres unmarked) [oxatropene with 2-naphthyl]", "values": [
      {"measurement": "IC50", "setting": "DAT", "result": 0.02, "unit": "µM"}
    ]},
    {"molecule": "(R,S)-3-[2-Benzothiophen-2-yl] -8-oxa-bicyclo[3.2.1]oct-2-ene-2carboxylic acid methyl ester [14m]", "values": [
      {"measurement": "selectivity for DAT vs. SERT", "setting": "[1]", "result": 177, "unit": "fold"}
    ]}
  ]
}
